The text below walks through data of ChEMBL document CHEMBL1133949, “Development of C-20 modified betulinic acid derivatives as antitumor agents” (Bioorg Med Chem Lett, 2001).

In assay [1] the test system is SK-MEL-2. The experiment in a line: Cytotoxicity of compound against SK-MEL-2 using SRB assay. The class given is functional, cell-based, Homo sapiens. (Sulforhodamine B stains cellular protein and so reports cell mass.)
The subject of a further assay is PC-3. The experiment in a line: Cytotoxicity of compound against human prostate adenocarcinoma (PC3) using SRB assay. The class given is functional, cell-based, Prostate gland.
Another assay relates to M14. Put plainly: Cytotoxicity of compound against human melanoma cell lines (M14-MEL) using MTT assay. The class given is functional. For orientation: Formazan colour is commonly taken as a measure of viable cells.
Another assay concerns UACC-257. Put plainly: Cytotoxicity of compound against human melanoma cell lines (UACC-257) using MTT assay. The assay is classed as functional.
In assay [2] the test system is SK-MEL-2. The experiment in a line: Cytotoxicity of compound against human melanoma cell lines (SK-MEL-2) using MTT assay. The class given is functional.
The test system of another assay is HCT-116. Put plainly: Cytotoxicity of compound against human colon carcinoma (HCT116) using MTT assay. The assay is classed as functional.

For orientation: EC50 means the midpoint of the concentration-response curve. A lower EC50 goes with greater potency. Turning to `CO/N=C1\CC[C@]2(C)[C@H]3CC[C@@H]4[C@H]5[C@H](C(C)C)CC[C@]5(C(=O)O)CC[C@@]4(C)[C@]3(C)CC[C@H]2C1(C)C`, the EC50 was more than 21.2 µM in the assay on SK-MEL-2 [1] and more than 16.4 µM in the assay with PC-3.
On the same counts, the results for `CC(C)[C@@H]1CC[C@]2(C(=O)O)CC[C@]3(C)[C@H](CC[C@@H]4[C@@]5(C)CC/C(=N\O)C(C)(C)[C@@H]5CC[C@]43C)[C@@H]12` are more than 3.4 µM and more than 3 µM.
One may read the GI50 as the concentration giving 50% growth inhibition. A lower GI50 goes with more potent growth inhibition. On to `C/C(=N/O)[C@@H]1CC[C@]2(C(=O)O)CC[C@]3(C)[C@H](CC[C@@H]4[C@@]5(C)CC[C@H](O)C(C)(C)[C@@H]5CC[C@]43C)[C@@H]12`, for which the GI50 with M14, with UACC-257, in the assay on SK-MEL-2 [2] and in the assay with HCT-116 was more than 50 µM in each case. For the same molecule, the EC50 in the assay with SK-MEL-2 [1] and in the assay with PC-3 was more than 50 µM each time.
As for `CO/N=C(/C)[C@@H]1CC[C@]2(C(=O)O)CC[C@]3(C)[C@H](CC[C@@H]4[C@@]5(C)CC[C@H](O)C(C)(C)[C@@H]5CC[C@]43C)[C@@H]12`, the GI50 in the assay on M14, in the assay with UACC-257, with SK-MEL-2 [2] and in the assay with HCT-116 was more than 50 µM throughout. In addition, the EC50 in the assay with SK-MEL-2 [1] and in the assay on PC-3 was more than 50 µM throughout.
For `C=C(CNOC)[C@@H]1CC[C@]2(C(=O)O)CC[C@]3(C)[C@H](CC[C@@H]4[C@@]5(C)CC[C@H](O)C(C)(C)[C@@H]5CC[C@]43C)[C@@H]12`, the EC50 with SK-MEL-2 [1] and in the assay on PC-3 was more than 50 µM in each case.
Regarding `CC(C)[C@@H]1CC[C@]2(C(=O)O)CC[C@]3(C)C(CCC4[C@@]5(C)CC[C@H](O)C(C)(C)C5CC[C@]43C)C12` (stereo not given in full) [DIHYDROBETULINIC ACID], the EC50 with SK-MEL-2 [1] was more than 2 µM; with PC-3, more than 2.2 µM.
As for `C=C(CO)[C@@H]1CC[C@]2(C(=O)O)CC[C@]3(C)[C@H](CC[C@@H]4[C@@]5(C)CC[C@H](O)C(C)(C)[C@@H]5CC[C@]43C)[C@@H]12`, the GI50 with M14 is more than 16.2 µM; in the assay on UACC-257, more than 50 µM; in the assay with SK-MEL-2 [2], more than 9.3 µM; with HCT-116, more than 9.8 µM. The values for the EC50 with SK-MEL-2 [1] and in the assay with PC-3 were more than 9 µM and more than 8.4 µM, respectively.
As to `CC(=O)[C@@H]1CC[C@]2(C(=O)O)CC[C@]3(C)[C@H](CC[C@@H]4[C@@]5(C)CC[C@H](O)C(C)(C)[C@@H]5CC[C@]43C)[C@@H]12` [PLATANIC ACID], the GI50 with M14, in the assay with UACC-257, in the assay on SK-MEL-2 [2] and with HCT-116 was more than 50 µM in each case. Also, the EC50 in the assay with SK-MEL-2 [1] and in the assay with PC-3 was more than 50 µM each time.
With `C=C(CNO)[C@@H]1CC[C@]2(C(=O)O)CC[C@]3(C)[C@H](CC[C@@H]4[C@@]5(C)CC[C@H](O)C(C)(C)[C@@H]5CC[C@]43C)[C@@H]12`, the EC50 in the assay with SK-MEL-2 [1] and with PC-3 was more than 50 µM throughout.
Regarding `CC(C)[C@@H]1CC[C@]2(C(=O)O)CC[C@]3(C)[C@H](CC[C@@H]4[C@@]5(C)CCC(=O)C(C)(C)[C@@H]5CC[C@]43C)[C@@H]12` [DIHYDROBETULONIC ACID], the EC50 was more than 1.6 µM with SK-MEL-2 [1] and more than 1.3 µM in the assay with PC-3.
Regarding `C=C(C)[C@@H]1CC[C@]2(C(=O)O)CC[C@]3(C)[C@H](CC[C@@H]4[C@@]5(C)CC[C@H](O)C(C)(C)[C@@H]5CC[C@]43C)[C@@H]12` [BETULINIC ACID], the GI50 was 2.7 µM with M14, 1.5 µM in the assay with UACC-257, 3.2 µM in the assay with SK-MEL-2 [2] and 2.7 µM with HCT-116. In addition, the EC50 was determined as 2.2 µM in the assay on SK-MEL-2 [1] and 1.9 µM with PC-3.
Take `C=C(C)[C@@H]1CC[C@]2(C(=O)O)CC[C@]3(C)[C@H](CC[C@@H]4[C@@]5(C)CC[C@H](OC(C)=O)C(C)(C)[C@@H]5CC[C@]43C)[C@@H]12`: the GI50 with M14 is more than 6.4 µM; in the assay on UACC-257, more than 4.5 µM; with SK-MEL-2 [2], more than 3.9 µM; with HCT-116, more than 11.3 µM. Moreover, the EC50 in the assay with SK-MEL-2 [1] is more than 6.9 µM; in the assay with PC-3, more than 7.2 µM.
Regarding `CC(O)[C@@H]1CC[C@]2(C(=O)O)CC[C@]3(C)[C@H](CC[C@@H]4[C@@]5(C)CC[C@H](O)C(C)(C)[C@@H]5CC[C@]43C)[C@@H]12` (stereo not given in full), the concentration for 50% growth inhibition (GI50) with M14, with UACC-257, in the assay with SK-MEL-2 [2] and in the assay on HCT-116 was more than 50 µM each time. For the same molecule, the EC50 in the assay on SK-MEL-2 [1] and in the assay with PC-3 was more than 50 µM in each case.
On to `C=C(COC)[C@@H]1CC[C@]2(C(=O)O)CC[C@]3(C)[C@H](CC[C@@H]4[C@@]5(C)CC[C@H](O)C(C)(C)[C@@H]5CC[C@]43C)[C@@H]12`, for which the GI50 with M14 was more than 9 µM; with UACC-257, more than 12.7 µM; with SK-MEL-2 [2], more than 50 µM; with HCT-116 it was more than 8.6 µM. Besides, the results for the EC50 in the assay with SK-MEL-2 [1] and with PC-3 were more than 10.1 µM and more than 9.4 µM, respectively.
